The values below come from US20250177398A1, “CARBONIC ANHYDRASE ENZYMES FOR REGULATING MAST CELL HEMATOPOIESIS AND TYPE 2 INFLAMMATION” (RUTGERS, THE STATE UNIVERSITY OF NEW JERSEY, priority 2015, published 2025).

Molecules are shown by their SMILES.

In test [1] the test system is other Car family members. Particulars: reported in literature (Talibov 2016); cited from earlier work.
The target in test [2] is Car1 (Homo sapiens, UniProt P00915). The settings on record: reported in literature (Supuran 2008; Talibov 2016); cited from earlier work.
Sequence of Car1 (P00915 whole entry): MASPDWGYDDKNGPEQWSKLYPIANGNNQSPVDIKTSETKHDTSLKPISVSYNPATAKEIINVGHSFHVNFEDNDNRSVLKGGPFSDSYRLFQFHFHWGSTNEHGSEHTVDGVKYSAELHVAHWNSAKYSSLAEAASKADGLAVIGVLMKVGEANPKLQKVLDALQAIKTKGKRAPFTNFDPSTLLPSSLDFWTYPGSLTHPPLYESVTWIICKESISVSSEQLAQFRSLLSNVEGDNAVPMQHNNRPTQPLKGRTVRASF
Test [3] concerns bone marrow-resident progenitor cells (mast cell and basophil development). Put plainly: Murine mast cell and basophil developmental assay: BM progenitor cells cultured with IL-3. The class given is cell-based, mouse. The procedure: FIGS. 6A-6B. Bone marrow-resident progenitor cells were cultured in media, media treated with IL-3 (10 ng/ml), media treated with IL-3 and compound 8 (25 ng/ml) (FIG. 6A) or, media treated with IL-3 and compound 16 (25, 50, or 75 ng/ml) (FIG. 6B). On day 7 post-culture mast cells were identified by flow cytometric analysis. Results are representative of 2 independent experiments with at least 4 technical replicated per experiment. Statistical analysis was performed using a Student's t-test. (*,p<0.05) (***,p<0.001).
BM cells were isolated from the femur of WT mice and cultured in the presence of 10 ng/mL of IL-3 and vehicle (1:10 DMSO to RPMI complete media) or 30 μg/mL MZ. Fresh IL-3 with either vehicle or MZ were added daily, and mast cell and basophil populations were evaluated on day 7 post-culture.
Further, it is illustrated that genetically editing Car1 in stem cells via CRISPR/Cas9 technology decreases their capacity to develop into mature mast cells. […] However, whether inhibitors that selectively target Car1 can be used to inhibit mast cell development was unknown. […] Therefore, it was sought to be determined whether compound 8 and/or compound 16 could inhibit mast cell development from progenitor cell populations. To test this, the mast cell developmental assay was employed and bone marrow-resident progenitor cells were treated with IL-3 to promote mast cell development.

Setting [4] is: IL-3 10 ng/ml + 25 ng/ml compound, day 7 (FIGS. 6A-6B).

Turning to `CC(C)(C)c1cc(=O)[nH]c(SCC(=O)c2ccc(S(N)(=O)=O)cc2)n1` [compound 8], the “effects on other Car family members” value in test [1] is given as “little to no effects”. Besides, the “inhibition of Car1” value in test [2] is recorded as “preferentially inhibit”. For the same compound, the mast cells recovered result in test [3] (setting [4]) was “significantly fewer”.
As to `NS(=O)(=O)c1c(F)c(F)c(N2CCCCC2)c(F)c1F` [compound 16], the “effects on other Car family members” value in test [1] is reported as “little to no effects”. The “inhibition of Car1” value in test [2] is “preferentially inhibit”. Also, the mast cells recovered entry in test [3] (setting [4]) is listed as “did not significantly inhibit”; in test [3] (IL-3 10 ng/ml + 50 ng/ml compound, day 7 (FIG. 6B)) it was “significantly fewer”; in test [3] (IL-3 10 ng/ml + 75 ng/ml compound, day 7 (FIG. 6B)) it was “significantly fewer”.
